# Measurements as given in ChEMBL document CHEMBL3085689, “Targeting the hydrophobic region of Hsp90's ATP binding pocket with novel 1,3,5-triazines” (Bioorg Med Chem Lett, 2013).
# The source made the active and inactive calls. The rule behind the calls is not given here.
# Legend:
# [1] = tested on: NCI-H1975; experiment: Antiproliferative activity against gefitinib-resistant human NCI-H1975 cells after 72 hrs by MTS assay; format: functional, cell-based
# [2] = molecular target: Heat shock protein HSP 90-beta (Homo sapiens) (UniProt P08238); experiment: Inhibition of HSP90 in human H1975 cells assessed as reduction of Her2 level at 50 to 100 uM after 24 hrs by densitometric analysis; format: cell-based
# Chain of Heat shock protein HSP 90-beta (Homo sapiens) (P08238 whole entry, the tested form may be a part): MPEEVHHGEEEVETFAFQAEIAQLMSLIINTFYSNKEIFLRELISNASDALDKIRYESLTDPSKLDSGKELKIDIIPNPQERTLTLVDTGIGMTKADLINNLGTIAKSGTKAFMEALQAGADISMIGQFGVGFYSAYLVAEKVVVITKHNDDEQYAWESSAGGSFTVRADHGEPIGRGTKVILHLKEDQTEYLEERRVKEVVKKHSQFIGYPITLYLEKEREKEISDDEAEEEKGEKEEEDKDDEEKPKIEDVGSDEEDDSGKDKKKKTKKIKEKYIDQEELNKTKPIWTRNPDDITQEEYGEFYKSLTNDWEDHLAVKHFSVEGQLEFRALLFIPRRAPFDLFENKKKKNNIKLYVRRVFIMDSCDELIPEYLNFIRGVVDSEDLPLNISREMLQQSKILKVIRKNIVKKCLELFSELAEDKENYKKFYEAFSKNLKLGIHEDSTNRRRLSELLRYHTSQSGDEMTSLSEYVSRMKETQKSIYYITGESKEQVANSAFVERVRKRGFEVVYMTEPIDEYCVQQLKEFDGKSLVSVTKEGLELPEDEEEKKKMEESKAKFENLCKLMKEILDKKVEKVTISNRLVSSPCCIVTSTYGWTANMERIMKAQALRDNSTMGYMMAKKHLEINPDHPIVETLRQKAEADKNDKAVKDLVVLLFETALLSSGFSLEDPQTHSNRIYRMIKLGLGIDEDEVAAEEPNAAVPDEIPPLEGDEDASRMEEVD
# [3] = molecular target: Heat shock protein HSP 90-alpha (Homo sapiens, UniProt P07900); experiment: Inhibition of recombinant human Hsp90alpha ATP-binding pocket of N-terminal domain after 4 hrs by fluorescence polarization assay
# [4] = molecular target: Heat shock protein HSP 90-beta (Homo sapiens) (UniProt P08238); experiment: Inhibition of HSP90 in human H1975 cells assessed as upregulation of Hsp70 after 24 hrs by densitometric analysis; format: cell-based
# [5] = molecular target: Heat shock protein HSP 90-beta (Homo sapiens) (UniProt P08238); experiment: Inhibition of HSP90 in human H1975 cells assessed as reduction of Akt level after 24 hrs by densitometric analysis; format: cell-based
# [6] = molecular target: Heat shock protein HSP 90-beta (Homo sapiens) (UniProt P08238); experiment: Inhibition of HSP90 in human H1975 cells assessed as reduction of Met level after 24 hrs by densitometric analysis; format: cell-based
# [7] = molecular target: Heat shock protein HSP 90-beta (Homo sapiens) (UniProt P08238); experiment: Inhibition of HSP90 in human H1975 cells assessed as reduction of Her2 level after 24 hrs by densitometric analysis; format: cell-based
# [8] = molecular target: Heat shock protein HSP 90-beta (Homo sapiens) (UniProt P08238); experiment: Inhibition of HSP90 in human H1975 cells assessed as upregulation of Hsp70 at 100 uM after 24 hrs by Western blotting analysis; format: cell-based
# [9] = molecular target: Heat shock protein HSP 90-beta (Homo sapiens) (UniProt P08238); experiment: Inhibition of HSP90 in human H1975 cells assessed as reduction of Akt level at 100 uM after 24 hrs by Western blotting analysis; format: cell-based
# [10] = molecular target: Heat shock protein HSP 90-beta (Homo sapiens) (UniProt P08238); experiment: Inhibition of HSP90 in human H1975 cells assessed as reduction of Met level at 100 uM after 24 hrs by Western blotting analysis; format: cell-based
# [11] = molecular target: Heat shock protein HSP 90-beta (Homo sapiens) (UniProt P08238); experiment: Inhibition of HSP90 in human H1975 cells assessed as reduction of Her2 level at 100 uM after 24 hrs by Western blotting analysis; format: cell-based
Activity [8],Activity [10],Activity [11],Compound,Activity [1],also measured
–,–,–,Nc1nc(Cl)nc(Nc2ccccc2Cl)n1,Dose-dependent effect,–
–,–,–,Nc1nc(Cl)nc(Nc2ccc(O)cc2)n1,Dose-dependent effect,–
Active,Active,Active,Cc1cccc(C)c1Oc1nc(N)nc(Cl)n1,Dose-dependent effect,Activity [2]: Active; IC50 [3]: 5 µM; Ki [3]: 2.8 µM; Activity [4]: Dose-dependent effect; Activity [5]: Dose-dependent effect; Activity [6]: Dose-dependent effect; Activity [7]: Dose-dependent effect; Activity [9]: Active
–,–,–,COc1cc(COc2nc(N)nc(Cl)n2)cc(OC)c1OC,Dose-dependent effect,–
Active,Active,Active,COc1ccc(Oc2nc(N)nc(Cl)n2)cc1,Dose-dependent effect,Activity [9]: Active
–,–,–,Nc1nc(Cl)nc(Nc2ccccc2)n1,Dose-dependent effect,–
inactive,inactive,inactive,COc1ccc(COc2nc(N)nc(Cl)n2)cc1,Dose-dependent effect,–
